Read-outs that look alike come from different tables or passages of the source.
How the values were obtained:
[1] = tested on: quadriceps femoris muscle injection site; assay: Example 13: GLP local tolerance study of naloxone following intramuscular injection; type: in vivo, New Zealand White Rabbits; conditions: for injection site findings: 7-day observation
Procedure: Mortality and clinical observations were recorded twice daily. […] On Day 8, the animals were euthanized and subject to a necropsy examination. A full tissue list was preserved, but only the test site and contralateral site in the other quadriceps femoris were processed for histopathological evaluation.

[2] = tested on: buprenorphine intravenous induced respiratory depression; conditions: 5 mg and 10 mg naloxone intravenously; cited from earlier work
morphine effects = conditions: cited from earlier work
respiratory depression = conditions: IV morphine […] reversed with naloxone 0.4 mg; cited from earlier work
opioid overdose = assay: Examples 10-12: high dose naloxone injection in emergency room opioid overdose cases; type: in vivo, human
Procedure: (§1) A person is admitted to a local emergency room suffering from an opioid overdose. A high dose naloxone composition is administered by injection to the person.
as §1

[3] = in vivo; cited from earlier work
[4] = in vivo, cited from earlier work
[5] = in vivo; cited from earlier work; remark: listed apart in the source

## C=CCN1CC[C@]23c4c5ccc(O)c4O[C@H]2C(=O)CC[C@@]3(O)[C@H]1C5 [naloxone]
[1]; males receiving 15 mg/animal, attributed to the shaving procedure
  erythema at injection site: low incidence of slight erythema
[1]; rabbits, 5 mg/0.5 mL three times (15 mg total dose), Day 8 necropsy
  histology: effect on the examined tissue: no evidence
[1]; rabbits, IM injection in 3 sites each 2 mg/0.4 mL (total 6 mg)
  injection site findings: no injection site findings attributed to treatment
[1]; rabbits, IM injection in 3 sites each 5 mg/0.5 mL (total 15 mg)
  injection site findings: no injection site findings attributed to treatment
[2]
  reversal of opioid effects: Complete reversal
Morphine effects; 30 mg i.m. naloxone
  reversal of morphine effects at the 30 mg dose: no additional reversal
Morphine effects; intra-muscular, 70 kg subject, morphine 18 or 30 mg/70 kg i.m.
  naloxone dose up to which reversal of the morphine effects was dose related: up to 10 mg
Respiratory depression
  return to severe respiratory depression after reversal: ≤ 30 min
Opioid overdose; Example 10: person, 5 mg in a single injection
  outcome of opioid overdose: recovers from the overdose event
Opioid overdose; Example 11: person, 10 mg in a single injection
  outcome of opioid overdose: recovers from the overdose event
Opioid overdose; Example 12: person, 20 mg in a single injection
  outcome of opioid overdose: recovers from the overdose event
[3]
  distribution half-life: 4.7 min
  elimination half-life (average): 1.08 h

## CN1CC[C@]23c4c5ccc(O)c4O[C@H]2[C@@H](O)C=C[C@H]3[C@H]1C5 [morphine]
[4]; iv
  analgesic onset: 6 min
  duration of action: 96 min
[4]
  duration of action: Longer

## CC(=O)Oc1ccc2c3c1O[C@H]1[C@@H](OC(C)=O)C=C[C@H]4[C@@H](C2)N(C)CC[C@@]341 [heroin]
[5]
  half-life: 3 to 7 h

— US12350473B2 (priority 2018, dated 2025)
